The source of these data is patent US8053457B2, “3-imidazolyl-indoles for the treatment of proliferative diseases” (Novartis AG, priority 2007, dated 2011).

Assay [1] has as its target T1, MDM4 protein (amino acids 2-185) (Homo sapiens, UniProt O15151).
T1 construct: MDM4 protein (amino acids 2-185), tagged with a C-terminal Biotin moiety
T1 sequence (O15151 2-185): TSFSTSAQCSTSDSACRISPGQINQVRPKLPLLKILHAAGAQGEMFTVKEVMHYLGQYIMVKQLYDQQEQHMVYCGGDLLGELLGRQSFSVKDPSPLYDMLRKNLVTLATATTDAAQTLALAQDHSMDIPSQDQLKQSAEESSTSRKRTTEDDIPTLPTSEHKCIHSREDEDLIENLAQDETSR
Nature of the assay: Time resolved fluorescence energy transfer (TR-FRET) assay, inhibition of p53-Hdm4 interaction. The format is binding. The following applies: MDM4-Bio 10 nM, Cy5-p53 peptide 20 nM. As for the experimental part: Time Resolved Fluorescence Energy Transfer (TR-FRET) Assay
The inhibition of p53-Hdm4 interaction is measured by time resolved fluorescence energy transfer (TR-FRET). Fluorescence energy transfer (or Foerster resonance energy transfer) describes an energy transfer between donor and acceptor fluorescent molecules. For this assay, MDM4 protein (amino acids 2-185), tagged with a C-terminal Biotin moiety, is used in combination with a Europium labeled streptavidin (Perkin Elmer, Inc., Waltham, Mass., USA) serving as the donor fluorophore. The p53 derived, Cy5 labeled peptide Cy5-TFSDLWKLL (p53 aa18-26) is the energy acceptor. Upon excitation of the donor molecule at 340 nm, binding interaction between MDM4 and the p53 peptide induces energy transfer and enhanced response at the acceptor emission wavelength at 665 nm. Disruption of the formation of the p53-MDM4 complex due to an inhibitor molecule binding to the p53 binding site of MDM4 results in increased donor emission at 615 nm. The ratiometric FRET assay readout is calculated from the raw data of the two distinct fluorescence signals measured in time resolved mode (countrate 665 nm/countrate 615 nm×1000).
The test is performed in white 1536w microtiterplates (Greiner Bio-One GmbH, Frickenhausen, Germany) in a total volume of 3.1 μl by combining 100 nl of compounds diluted in 90% DMSO/10% H2O (3.2% final DMSO concentration) with 2 μl Europium labeled streptavidin (final concentration 2.5 nM) in reaction buffer (PBS, 125 mM NaCl, 0.001% Novexin (consists of carbohydrate polymers (Novexin polymers), designed to increase the solubility and stability of proteins; Novexin Ltd., Cambridgeshire, United Kingdom), Gelatin 0.01%, 0.2% Pluronic (block copolymer fromethylenoxide and propyleneoxide, BASF, Ludwigshafen, Germany), 1 mM DTT), followed by the addition of 0.5 μl MDM4-Bio diluted in assay buffer (final concentration 10 nM). Allow the solution to pre-incubate for 15 minutes at room temperature, followed by addition of 0.5 μl Cy5-p53 peptide in assay buffer (final concentration 20 nM). Incubate at room temperature for 10 minutes prior to reading the plate. For measurement of samples, an Analyst GT multimode microplate reader (Molecular Devices) with the following settings is used: Dichroic mirror 380 nm, Excitation 330 nm, Emission Donor 615 nm and Emission Acceptor 665 nm. IC50 values are calculated by curve fitting using XLfit. If not specified, reagents are purchased from Sigma Chemical Co, St. Louis, Mo., USA.
Background: In TR-FRET formats the signal depends on donor and acceptor labels being close together.

Assay [2] has as its target T2, Hdm2 protein (amino acids 2-185) (Homo sapiens, UniProt Q00987).
T2 construct: Hdm2 protein (amino acids 2-185)
Nature of the assay: Fluorescence polarisation assay, inhibition of p53-Hdm2 interaction. The format is binding. The following applies: Hdm2 3 nM, Cy5-labelled p53-derived peptide 1 nM. As for the experimental part: Fluorescence Polarisation Assay
The inhibition of p53-Hdm2 interaction is measured by fluorescence polarization. Fluorescence polarization measures the rotational movement of molecules in a homogeneous suspension. For this assay, Hdm2 protein (amino acids 2-185) is combined with a Cy5-labelled p53-derived peptide optimised for Hdm2 binding (J. Med. Chem. 2000, 43, 3205-3208). Upon excitation of the Cy5 fluorescent ligand with linearly polarized light, the peptide rotates faster and emits light which is perpendicularly polarized. If the peptide is bound by Hdm2, rotation will slow down and the perpendicular component will decrease. Disruption of the formation of the peptide-Hdm2 complex due to an inhibitor molecule binding to the p53 binding site of Hdm2 results in faster rotation of the peptide. The ratiometric polarization assay readout is calculated from the parallel and perpendicular components of the fluorescence light with respect to the polarization of the excitation light.
The test is performed by combining 7 μl compounds diluted in dimethyl sulfoxide (DMSO) (10% final concentration) with 31.5 μl […] (final concentration 3 nM) in reaction buffer (PBS, 0.1% CHAPS, 1 mM DTT (dithiothreitol)). The solution is allowed to preincubate for 5 minutes at room temperature, followed by addition of 31.5 μl peptide in reaction buffer (final concentration 1 nM), and a further 5 minutes of incubation. A final volume of 20 μl (in triplicate) is distributed into small volume black 384-well plates (Greiner Bio-One GmbH, Frickenhausen, Germany). For measurement of samples, an Analyst AD multimode microplate reader (Molecular Devices Corporation, Sunnyvale, Calif., USA) with the following settings is used: Dichroic mirror 650 nm, Excitation 630 nm, Emission 695 nm. Raw values are expressed as percent of DMSO control, where background (reaction buffer with peptide but no Hdm2) is subtracted first from raw values. IC50 values are calculated by curve fitting using XLfit. If not specified, reagents were purchased from Sigma Chemical Co.
(In general: Fluorescence polarisation rises when a labelled molecule tumbles more slowly, as on binding a larger partner.)

T2 sequence (Q00987 2-185): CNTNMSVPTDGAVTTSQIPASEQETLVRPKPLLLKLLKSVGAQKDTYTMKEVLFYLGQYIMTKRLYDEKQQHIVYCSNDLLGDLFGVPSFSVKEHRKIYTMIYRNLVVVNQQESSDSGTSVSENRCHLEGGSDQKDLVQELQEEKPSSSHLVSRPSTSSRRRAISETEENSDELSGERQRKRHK

One may read the IC50 as the midpoint of a concentration-inhibition curve. Consider `Fc1cc2c(-c3c(-c4ccccc4)ncn3Cc3ccc4cc[nH]c4c3)c[nH]c2cc1Cl` [Example 135], for which the IC50 in assay [1] is 68.3 µM; in assay [2] it was 7.2 µM.
For `OCc1cc(Cl)ccc1Cn1cnc(-c2ccccc2)c1-c1c[nH]c2cc(Cl)c(F)cc12` [Example 148] the same measures were 55.3 µM and 0.11 µM.
Take `O=C(NCCN1CCN(Cc2ccccn2)C1=O)c1[nH]c2cc(Cl)ccc2c1-c1c(-c2ccccc2)ncn1Cc1ccc(Cl)cc1` [Example 328, 6-Chloro-3-[3-(4-chloro-benzyl)-5-phenyl-3H-imidazol-4-yl]-1H-indole-2-carboxylic acid [2-(2-oxo-3-pyridin-2-ylmethyl-imidazolidin-1-yl)-ethyl]-amide]: the figures for the IC50 in assay [1] and in assay [2] were 63.7 µM and 0.19 µM, respectively.
For `Oc1cccc(-c2ncn(Cc3ccc(Cl)cc3)c2-c2c[nH]c3cc(Cl)c(F)cc23)c1` [Example 142, 3-[1-(4-Chloro-benzyl)-5-(6-chloro-5-fluoro-1H-indol-3-yl)-1H-imidazol-4-yl]-phenol], in that order: 43.4 µM and 0.64 µM.
For `O=C(CN1CCN(CCNC(=O)c2[nH]c3cc(Cl)ccc3c2-c2c(-c3ccccc3)ncn2Cc2ccc(Cl)cc2)CC1)Nc1cccnc1` [Example 271] the same measures were 54.9 µM and 0.3 µM.
